This is an account of results in the kinase profiling compilation of Christmann-Franck et al. (2016).

Assay in all cases: KINOMEscan competition binding
What all share (conditions): compound 10.0 µM

Test [1] has as its system EGFR (human), P00533 [747-751 del / S ins].
Test [2] relates to EGFR (human), P00533 [752-759 del].
The subject of test [3] is KIT (human), P10721 [V559D/V654A].
Test [4] deals with RET (human), P07949 [M918T].
The subject of test [5] is FLT3 (human), P36888 [D835H].
For test [6], the system named is EGFR (human), P00533 [T790M].
The subject of test [7] is ABL1 (human), P00519 [Y253F].
The test system of test [8] is RET (human), P07949 [V804M].
RET (human), P07949 [V804M], sequence (P07949 whole entry V804M, looked up): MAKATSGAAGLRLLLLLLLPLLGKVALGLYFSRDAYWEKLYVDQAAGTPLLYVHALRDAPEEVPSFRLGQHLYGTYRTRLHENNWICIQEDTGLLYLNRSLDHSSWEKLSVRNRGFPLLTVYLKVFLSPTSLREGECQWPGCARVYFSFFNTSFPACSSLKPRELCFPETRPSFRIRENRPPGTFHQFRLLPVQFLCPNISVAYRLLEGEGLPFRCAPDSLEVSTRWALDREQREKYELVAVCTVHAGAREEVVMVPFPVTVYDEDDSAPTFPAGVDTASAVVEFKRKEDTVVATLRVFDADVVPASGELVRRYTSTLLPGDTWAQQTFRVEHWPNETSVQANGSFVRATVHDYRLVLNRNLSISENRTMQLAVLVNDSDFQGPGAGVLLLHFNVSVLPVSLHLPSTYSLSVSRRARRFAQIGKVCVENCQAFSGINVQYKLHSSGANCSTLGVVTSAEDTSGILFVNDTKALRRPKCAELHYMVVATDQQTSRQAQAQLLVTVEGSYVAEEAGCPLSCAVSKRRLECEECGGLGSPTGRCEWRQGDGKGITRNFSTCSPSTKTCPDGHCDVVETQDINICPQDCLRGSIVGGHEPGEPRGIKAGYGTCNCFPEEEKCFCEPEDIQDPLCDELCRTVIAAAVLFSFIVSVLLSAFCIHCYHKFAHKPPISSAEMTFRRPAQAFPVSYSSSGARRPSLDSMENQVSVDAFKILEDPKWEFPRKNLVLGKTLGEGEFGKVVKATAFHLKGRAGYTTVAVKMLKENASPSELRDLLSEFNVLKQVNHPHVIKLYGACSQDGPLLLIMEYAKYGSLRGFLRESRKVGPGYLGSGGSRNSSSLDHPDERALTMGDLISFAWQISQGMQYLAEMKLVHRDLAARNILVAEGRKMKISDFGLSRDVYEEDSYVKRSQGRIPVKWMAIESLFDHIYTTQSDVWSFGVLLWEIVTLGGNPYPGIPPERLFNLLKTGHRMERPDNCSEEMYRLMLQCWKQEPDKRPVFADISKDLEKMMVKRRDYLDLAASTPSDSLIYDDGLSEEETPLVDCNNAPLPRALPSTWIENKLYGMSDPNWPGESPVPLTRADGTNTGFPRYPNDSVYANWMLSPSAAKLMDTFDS
Test [9] deals with FLT3 (human), P36888 [R834Q].
Test [10] has as its system EGFR (human), P00533 [T790M/L858R].
Test [11] relates to MET (human), P08581 [Y1235D].
The subject of test [12] is KIT (human), P10721 [L576P].

KIT (human), P10721 [L576P], sequence (P10721 whole entry L576P, looked up): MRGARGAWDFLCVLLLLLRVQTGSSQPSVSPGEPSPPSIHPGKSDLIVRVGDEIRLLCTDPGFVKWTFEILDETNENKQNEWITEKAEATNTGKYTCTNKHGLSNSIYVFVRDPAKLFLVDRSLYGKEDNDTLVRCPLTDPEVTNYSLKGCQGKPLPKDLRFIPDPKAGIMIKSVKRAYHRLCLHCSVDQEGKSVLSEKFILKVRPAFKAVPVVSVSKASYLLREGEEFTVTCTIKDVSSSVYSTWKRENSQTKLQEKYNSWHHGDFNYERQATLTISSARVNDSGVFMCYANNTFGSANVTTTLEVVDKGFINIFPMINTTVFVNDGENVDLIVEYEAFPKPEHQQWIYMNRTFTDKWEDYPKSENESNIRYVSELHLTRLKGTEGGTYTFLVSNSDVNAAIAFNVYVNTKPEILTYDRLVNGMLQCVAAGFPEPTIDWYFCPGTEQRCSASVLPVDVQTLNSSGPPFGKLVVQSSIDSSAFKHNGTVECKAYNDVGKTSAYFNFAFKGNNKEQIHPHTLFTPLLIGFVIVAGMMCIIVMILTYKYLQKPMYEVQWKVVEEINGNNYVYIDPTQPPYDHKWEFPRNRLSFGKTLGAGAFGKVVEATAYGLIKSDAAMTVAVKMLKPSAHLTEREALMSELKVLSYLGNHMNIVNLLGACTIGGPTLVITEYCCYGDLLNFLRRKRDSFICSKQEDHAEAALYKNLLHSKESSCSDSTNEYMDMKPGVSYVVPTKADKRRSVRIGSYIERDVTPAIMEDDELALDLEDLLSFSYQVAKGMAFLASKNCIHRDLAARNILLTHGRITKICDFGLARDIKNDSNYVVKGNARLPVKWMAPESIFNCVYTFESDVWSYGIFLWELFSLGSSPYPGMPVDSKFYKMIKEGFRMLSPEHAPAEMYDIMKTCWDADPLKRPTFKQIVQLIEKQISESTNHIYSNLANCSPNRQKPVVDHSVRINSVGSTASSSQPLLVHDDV
RET (human), P07949 [M918T], sequence (P07949 whole entry M918T, looked up): as the sequence (P07949 whole entry V804M, looked up) above, with M804V, M918T counted along it
KIT (human), P10721 [V559D/V654A], sequence (P10721 whole entry V559D/V654A, looked up): as the sequence (P10721 whole entry L576P, looked up) above, with V559D, P576L, V654A counted along it

Turning to `COc1cc(N2CCN(C)CC2)ccc1Nc1nc(N)c(C(=O)c2c(Cl)cccc2Cl)s1`, the kinase still bound, per cent of control in test [1] was found to be 91%; in [2], 89%; in test [3], 94%; in test [4], 100%; in test [5] it was 99%; in test [6], 100%. Further, the kinase still bound, per cent of control is 98% in test [7]; 100% in test [8]; 100% in test [9]; 100% in [10]; 100% in [11]; 100% in [12].

Regarding `O=C(O)c1ccc(Nc2ncc3c(n2)-c2ccc(Cl)cc2C(c2c(F)cccc2F)=NC3)cc1`, the kinase still bound, per cent of control in [2] was 34%; in test [3], 60%; in test [4], 54%; in test [6] it was 50%; in test [8], 89%; in test [9], 100%. Also, the kinase still bound, per cent of control amounted to 51% in [11] and 60% in [12].

Turning to `CN(C)C/C=C/C(=O)Nc1cccc(Nc2ncc3c(n2)N(C)c2ccccc2C(=O)N3C)c1`, the kinase still bound, per cent of control in [1] amounted to 77%; in test [2] it was 74%; in test [3] it was 96%; in [4], 0.55%; in test [5], 5.3%; in test [6], 43%. In addition, the kinase still bound, per cent of control amounted to 0% in [7]; 0.15% in test [8]; 37% in test [9]; 86% in test [10]; 77% in test [11]; 33% in [12].

As to `Nc1ccc(-c2ccc3ncc4ccc(=O)n(-c5cccc(C(F)(F)F)c5)c4c3c2)cn1`, the kinase still bound, per cent of control in test [1] came to 67%; in test [2] it was 70%; in test [3], 100%; in test [4], 79%; in [5] it was 16%; in test [6], 100%. Also, the kinase still bound, per cent of control in test [7] was 87%; in test [8], 100%; in test [9], 32%; in test [10] it was 100%; in test [11], 98%; in test [12], 51%.

`CCOc1cc2ncc(C#N)c(Nc3ccc(OCc4ccccn4)c(Cl)c3)c2cc1NC(=O)/C=C/CN(C)C`: the kinase still bound, per cent of control in [4] is 100%; in test [5], 94%; in test [8], 91%; in test [9] it was 100%; in test [11], 86%.

For the compound `N#Cc1cc(-c2ccnc(Nc3ccc(-n4cnc(-c5cccnc5)n4)cc3)n2)cc(N2CCOCC2)c1`, the kinase still bound, per cent of control in test [1] was 79%; in [2], 87%; in test [3], 42%; in [4], 100%; in test [5], 21%; in test [6], 86%. The kinase still bound, per cent of control was 84% in test [7]; 100% in test [8]; 58% in test [9]; 97% in [10]; 14% in test [11]; 17% in test [12].

As to `C[C@@H](Oc1cc(-n2cnc3ccc(CN4CCN(C)CC4)cc32)sc1C(N)=O)c1ccccc1C(F)(F)F`, the kinase still bound, per cent of control was 100% in [1]; 100% in test [2]; 100% in test [3]; 100% in test [4]; 10% in test [5]; 54% in [6]. In addition, the kinase still bound, per cent of control was found to be 69% in test [7]; 100% in test [8]; 20% in [9]; 78% in [10]; 98% in test [11]; 54% in test [12].

Regarding `O=C(NOC[C@H](O)CO)c1ccc(F)c(F)c1Nc1ccc(I)cc1F`, the kinase still bound, per cent of control in test [1] came out at 51%; in test [2] it was 70%; in test [3], 100%; in test [4], 79%; in test [5] it was 87%; in test [6], 77%. The kinase still bound, per cent of control in test [8] was 100%; in test [9] it was 78%; in test [10], 100%; in test [11], 100%; in test [12], 75%.

Regarding `CCN(CCO)CCCOc1ccc2c(Nc3cc(CC(=O)Nc4cccc(F)c4)[nH]n3)ncnc2c1`, the kinase still bound, per cent of control in test [4] stood at 0.2%; in [5] it was 4%; in [7] it was 28%; in [8] it was 5.5%; in test [9], 14%; in test [11] it was 30%. Moreover, in test [12], the kinase still bound, per cent of control came to 0%.

In the case of `CCCS(=O)(=O)Nc1ccc(F)c(C(=O)c2c[nH]c3ncc(-c4ccc(Cl)cc4)cc23)c1F`, the kinase still bound, per cent of control in [1] amounted to 78%; in test [2], 71%; in [3], 26%; in [4] it was 28%; in test [8], 91%; in [9], 100%. The kinase still bound, per cent of control in [10] worked out at 100%; in test [11], 78%; in [12], 0%.

Take `CC(=O)c1c(C)c2cnc(Nc3ccc(N4CCNCC4)cn3)nc2n(C2CCCC2)c1=O`: the kinase still bound, per cent of control in test [2] was found to be 87%; in [5], 22%; in [6] it was 39%; in test [7] it was 59%; in [8], 14%; in test [9], 61%. Moreover, the results for the kinase still bound, per cent of control in test [10], in [11] and in [12] were 60%, 58% and 24%, respectively.

As to `N#Cc1c(NC(=O)c2cccc3ccccc23)sc2c1CCCC2`, the kinase still bound, per cent of control in test [3] stood at 100%; in test [4], 95%; in [5], 84%; in test [7], 95%; in test [8] it was 92%; in [9], 88%. Further, the kinase still bound, per cent of control in [11] came out at 71%; in test [12] it was 79%.

Consider `N#C/C(=C1/Nc2ccccc2S1)c1ccnc(NCCc2cccnc2)n1`, for which the kinase still bound, per cent of control in test [3] was 100%; in [4], 100%; in test [5] it was 83%; in [7], 100%; in test [8] it was 88%; in test [9], 68%. Also, the kinase still bound, per cent of control turned out to be 88% in test [11] and 33% in test [12].

Consider `COc1cc2c(Nc3ccc(NC(=O)c4ccccc4)cc3)ncnc2cc1OCCCN1CCOCC1`, for which the kinase still bound, per cent of control in test [1] was found to be 26%; in test [2], 14%; in [3] it was 5.8%; in test [4] it was 0.1%; in test [5], 13%; in test [6], 42%. The kinase still bound, per cent of control in test [7] stood at 35%; in test [8] it was 12%; in [9] it was 34%; in [10] it was 85%; in test [12] it was 0%.

For the compound `Cc1ccc2nc(NCCN)c3ncc(C)n3c2c1`, the kinase still bound, per cent of control in test [1] was found to be 100%; in test [2] it was 100%; in test [3], 100%; in test [4] it was 100%; in test [5], 100%; in test [6], 50%. Moreover, the kinase still bound, per cent of control in test [7], in test [8], in [9], in [10] and in test [11] was 100% throughout.
